Source: patent US7361675B2, “1,2,4-thiadiazole compounds and use thereof” (Sumitomo Chemical Company Limited, priority 2002, dated 2008)

Assays:
[1] = tested on: silverleaf whitefly (Bemisia argentifolii); assay: Test Example 3: silverleaf whitefly on cabbage (foliar scattering); format: in vivo; conditions: 168 h, 20 ml/cup on cabbage 8 days after egg laying, seven days after scattering, read-out: insecticidal rate
Description: A preparation prepared from each of the compounds (1), (2), (5), (6), (8), (9), (16), (77) and (78) of the present invention and the comparative compound (A) according to Formulation Example 5 was diluted with water so that the concentration of the compound of the present invention became 500 ppm to obtain a test scattering solution.
On the other hand, soil was filled in polyethylene cups, cabbage was planted in each cup, and grown until its first foliage leaves developed, and leaves other than a first foliage leaves were removed. About 200 imagoes of silverleaf whitefly (Bemisia argentifolii) were released on this cabbage for about 24 hours, and had them lay eggs on the cabbage first foliage leaf.
The thus obtained cabbage on which about 80 to 100 eggs of silverleaf whitefly (Bemisia argentifolii) were laid was allowed to stand in a greenhouse for 8 days, and the aforementioned test scattering solution was scattered at a ratio of 20 ml/cup. Seven days after scattering, the number of alive insects was examined, and an insecticidal rate was calculated.

[2] = tested on: western flower thrips (Frankliniella occidentalis); assay: Test Example 2: western flower thrips damage on treated cucumber leaf; format: in vivo; conditions: 500 ppm, 20 ml/cup on cucumber, cut first foliage leaf, 30 larvae, after seven days
Description: A preparation prepared from each of the compound (1) of the present invention and a comparative compound (A) according to Formulation Example 5 was diluted with water so that the concentration of the compound of the present invention became 500 ppm to obtain a test scattering solution. On the other hand, soil was filled into polyethylene cups, cucumber was planted in each cup, and grown until its first foliage leaves developed. The aforementioned test scattering solution was scattered on the cucumber at a ratio of 20 ml/cup, and the scattered solution on the surface of the leaf was dried. The first foliage leaf was cut off, placed on a filter (diameter 70 mm) impregnated with water in a polyethylene cup (diameter 110 mm), 30 larvae of western flower thrips (Frankliniella occidentalis) were released thereon, and the polyethylene cup was closed with a lid. After seven days, a damage degree of the cucumber leaf by western flower thrips (Frankliniella occidentalis) was examined.

melting point [°C] | Compound | pest or weed control at 500 ppm [1] [%] | damage area rate by western flower thrips in the treated leaf [2] [%]
– | CCC#CCOc1nsc(-c2ccccc2Cl)n1 [compound (77), 5-(2-chlorophenyl)-3-(2-pentynyloxy)-1,2,4-thiadiazole] | ≥ 90 | –
68.7 | CC#CCOc1nsc(-c2cccc(F)c2)n1 [compound (6), 5-(3-fluorophenyl)-3-(2-butynyloxy)-1,2,4-thiadiazole] | ≥ 90 | –
– | CC#CCOc1nsc(-c2cccc(Cl)c2)n1 [compound (9), 5-(3-chlorophenyl)-3-(2-butynyloxy)-1,2,4-thiadiazole] | ≥ 90 | –
– | CC#CCOc1nsc(-c2ccccc2F)n1 [compound (5), 5-(2-fluorophenyl)-3-(2-butynyloxy)-1,2,4-thiadiazole] | ≥ 90 | –
– | C#CCOc1nnc(-c2ccccc2)s1 [comparative compound (A), reference compound] | ≤ 30 | ≥ 20
70.3 | CC#CCOc1nsc(-c2ccccc2)n1 [compound (2), 5-phenyl-3-(2-butynyloxy)-1,2,4-thiadiazole] | ≥ 90 | –
66.9 | C#CCOc1nsc(-c2ccccc2)n1 [compound (1), 5-phenyl-3-propargyloxy-1,2,4-thiadiazole] | ≥ 90 | ≤ 5
– | CC#CCOc1nsc(-c2cccc(F)c2F)n1 [compound (16), 5-(2,3-difluorophenyl)-3-(2-butynyloxy)-1,2,4-thiadiazole] | ≥ 90 | –
– | CC#CCOc1nsc(-c2ccccc2Cl)n1 [compound (8), 5-(2-chlorophenyl)-3-(2-butynyloxy)-1,2,4-thiadiazole] | ≥ 90 | –
– | CCC#CCOc1nsc(-c2cccc(Cl)c2)n1 [compound (78), 5-(3-chlorophenyl)-3-(2-pentynyloxy)-1,2,4-thiadiazole] | ≥ 90 | –
